In BindingDB's records for doi:10.1016/j.bmcl.2018.10.045 (Merck, 2019) one finds EC50 data, which are given here for eight compounds.

Test [1] in a line: Inhibition of NS5B polymerase in HCV genotype 2B infected in HuH7 cells after 40 hrs by Taqman probe based RT-PCR analysis. (In qPCR the cycle at which signal appears reflects the starting amount.)
Test [2] is described as follows: Inhibition of NS5B polymerase E1202G/T1280I/S2197P mutant in HCV genotype 2a infected in human HuH7 replicon cells after 72 hrs in presence of 10% FBS by luciferase-based reporter assay.
A short description of test [3]: Inhibition of NS5B polymerase in HCV genotype 3A infected in HuH7 cells after 40 hrs by Taqman probe based RT-PCR analysis.
Test [4] in a line: Inhibition of NS5B polymerase E1202G/T1280I/S2197P mutant in HCV genotype 1b infected in human HuH7 replicon cells after 72 hrs in presence of 50% human serum by luciferase-based reporter assay. Background: A replicon is a self-replicating genome or part of one, used to study replication in cells.
Test [5] in a line: Inhibition of NS5B polymerase in HCV genotype 4A infected in HuH7 cells after 40 hrs by Taqman probe based RT-PCR analysis.
A short description of test [6]: Inhibition of NS5B polymerase E1202G/T1280I/S2197P mutant in HCV genotype 1b infected in human HuH7 replicon cells after 72 hrs in presence of 10% FBS by luciferase-based reporter assay.
The nature of test [7]: Inhibition of NS5B polymerase C316Y mutant in HCV genotype 1A infected in HuH7 cells after 40 hrs by Taqman probe based RT-PCR analysis.
Test [8] can be described thus: Inhibition of NS5B polymerase S365A mutant in HCV genotype 1A infected in HuH7 cells after 40 hrs by Taqman probe based RT-PCR analysis.
The nature of test [9]: Inhibition of NS5B polymerase in HCV genotype 2A infected in HuH7 cells after 40 hrs by Taqman probe based RT-PCR analysis.
A short description of test [10]: Inhibition of NS5B polymerase in HCV genotype 1b infected in HuH7 cells after 40 hrs by Taqman probe based RT-PCR analysis.
A short description of test [11]: Inhibition of NS5B polymerase E1202G/T1280I/S2197P mutant in HCV genotype 1a infected in human HuH7 replicon cells after 72 hrs in presence of 10% FBS by luciferase-based reporter assay.
Test [12] is described as follows: Inhibition of NS5B polymerase in HCV genotype 1a infected in HuH7 cells after 40 hrs by Taqman probe based RT-PCR analysis.

Regarding `CNC(=O)c1c(-c2ccc(F)cc2)oc2cc(N(C)S(C)(=O)=O)c(-c3ccc4c(n3)-c3cc5c(F)cccc5n3CC4)cc12` [US9243002, 85], the EC50 (in general, the concentration giving half of the maximal effect) in [1] is 2.7 nM; in test [2], 5.7 nM; in [3], 1.1 nM; in test [4], 13 nM; in test [5] it was 1.2 nM; in test [6] it was 3.3 nM. In addition, the EC50 in test [7] worked out at 8.4 nM; in test [8], 6.5 nM; in [9], 6 nM; in [10] it was 2.1 nM; in [11], 3 nM; in [12] it was 0.86 nM.
For the compound `CNC(=O)c1c(-c2ccc(F)cc2)oc2cc(N(C)S(C)(=O)=O)c(-c3cc4n(c(=O)c3)CCn3c-4cc4c(F)cccc43)cc12`, the EC50 in [1] turned out to be 2.2 nM; in test [3], 0.62 nM; in test [5] it was 1.5 nM; in test [7], 9.8 nM; in [8], 6.4 nM; in test [9], 11 nM. Moreover, the figures for the EC50 in [10] and in [12] were 1.3 nM and 0.61 nM, respectively.
On to `CNC(=O)c1c(-c2ccc(F)cc2)oc2cc(N(C)S(C)(=O)=O)c(-c3ccc4c(n3)-c3cc5c(F)cccc5n3CN4)cc12`, for which the EC50 amounted to 2.9 nM in [1]; 6.4 nM in test [2]; 1 nM in [3]; 46 nM in test [4]; 1.1 nM in test [5]; 5.3 nM in test [6]. Besides, the EC50 amounted to 7.6 nM in test [7]; 3.1 nM in test [8]; 5.7 nM in [9]; 1.8 nM in test [10]; 5.3 nM in [11]; 0.9 nM in test [12].
As to `CNC(=O)c1c(-c2ccc(F)cc2)oc2cc(N(C)S(C)(=O)=O)c(-c3ccc4c(n3)-c3cc5c(F)cccc5n3C4)cc12` [US9243002, 88], the EC50 in test [1] came out at 3.9 nM; in [3] it was 3 nM; in test [5], 2.7 nM; in [7] it was 9.5 nM; in test [8] it was 34 nM; in test [9] it was 8.5 nM. The EC50 in test [10] was found to be 5.1 nM; in test [12] it was 2.2 nM.
With `CNC(=O)c1c(-c2ccc(F)cc2)oc2cc(N(C)S(C)(=O)=O)c(-c3ccc4c(n3)-c3cc5c(F)cccc5n3CCC4)cc12` [US9243002, 72], the EC50 stood at 6.5 nM in test [1]; 1.2 nM in test [3]; 1.5 nM in test [5]; 26 nM in [7]; 16 nM in test [8]; 6.8 nM in [9]. The results for the EC50 in test [10] and in test [12] were 1.9 nM and 1.1 nM, respectively.
Turning to `CNC(=O)c1c(-c2ccc(F)cc2)oc2cc(N(C)S(C)(=O)=O)c(-c3ccc4c(n3)-c3cc5c(F)cccc5n3CCCC4)cc12` [US9243002, 99], the EC50 worked out at 3.8 nM in test [1]; 1.9 nM in [3]; 3.5 nM in [5]; 13 nM in test [7]; 42 nM in [8]; 26 nM in [9]. Further, the EC50 is 5.2 nM in test [10] and 2 nM in test [12].
Consider `CNC(=O)c1c(-c2ccc(F)cc2)oc2cc(N(C)S(C)(=O)=O)c(-c3ccc4ccn5c6cccc(F)c6cc5c4n3)cc12` [US9243002, 82], for which the EC50 in test [1] turned out to be 3.5 nM; in test [2], 6.3 nM; in [3], 1.2 nM; in [4] it was 30 nM; in [5], 1.2 nM; in [6], 5.5 nM. Also, the EC50 stood at 11 nM in test [7]; 4.8 nM in test [8]; 6.7 nM in test [9]; 2.6 nM in test [10]; 2.9 nM in test [11]; 0.95 nM in test [12].
For the compound `CNC(=O)c1c(-c2ccc(F)cc2)oc2cc(N(C)S(C)(=O)=O)c(-c3ccc4ncn5c6cccc(F)c6cc5c4n3)cc12`, the EC50 was found to be 2.4 nM in test [1]; 3.3 nM in test [2]; 1 nM in test [3]; 16 nM in [4]; 0.63 nM in test [5]; 3.2 nM in test [6]. Besides, the EC50 in test [7] is 3.1 nM; in [8] it was 1 nM; in [9], 3.4 nM; in [10], 1.4 nM; in [11] it was 2 nM; in test [12], 0.68 nM.
